Patent publication US20080206761A1, “Ex Vivo Gene Expression in Whole Blood as a Model of Assessment of Individual Variation to Dietary Supplements” (priority 2005, published 2008)

Key:
Type in all cases: cell-based, human
TNF-α mRNA = experiment: PHA-induced TNF-α mRNA expression in heparinized whole blood ex vivo; settings: for ΔΔCt (mean ± standard deviation, n = 3), TNFα mRNA: supplement 30 min, then 100 μg/mL PHA 2 h, concentrations per footnote
Experimental: (§1) In this embodiment, phytohemagglutinin-induced gene expression of interleukin-2 (IL-2), interleukin-4 (IL-4), and tumor necrosis factor-α (TNF-α) were quantitated in the following manner. Fifty μL of heparinized whole blood was incubated with various dietary supplements for a period of 30 minutes. The following supplements were employed: vitamins A, C, and D, epigallocatechin gallate (from green tea), genistein (from soy), and curcumin (from the spice turmeric). Vitamin A is known to stimulate the immune system. […] Vitamin D appears to have protective effects against certain cancers. Epigallocatechin gallate is a powerful antioxidant, appears to reduce the multidrug resistance found in cancer cells, and preferentially induces apoptosis in neoplastic cells. Genistein has been found in some studies to have anticarcinogenic activity; possible mechanisms of action include upregulation of apoptosis, inhibition of angiogenesis, inhibition of DNA topoisomerase II and inhibition of protein tyrosine kinases. Curcumin has proapoptotic effects in neoplastic cells and interferes with the activity of the transcription factor NF-κB, which is often highly overexpressed in such cells.
(§2) After incubation with the dietary supplement, 100 μg/mL phytohemagglutinin (PHA) was added and incubation was continued for an additional 2 hours at 37° C. The concentration of each dietary supplement (see Table I, note) was slightly higher than reported blood levels. Then mRNA was purified, cDNA was synthesized, and the levels of IL-2, IL-4, and TNF-α were quantitated by TaqMan real time polymerase chain reaction (PCR) (see Holland, et al., “Detection of specific polymerase chain reaction product by utilizing the 5′ to 3′ exonuclease activity of Thermus aquaticus DNA polymerase,” Proc Natl Acad Sci USA 1991; 88: 7276-80), as described below.
(§3) The mRNA and cDNA were prepared from the whole blood that was exposed to the dietary components, as well as the whole blood which remained unexposed. In brief, home-made 96-well filterplates were placed over collection plates, and 150 μl 5 mM Tris, pH 7.4, was applied. Following centrifugation at 120×g for 1 min at 4° C., 50 μl of blood samples were applied to each well and immediately centrifuged at 120×g for 2 min at 4° C., followed by washing of each well with 300 μl PBS once with centrifugation at 2000×g for 5 min at 4° C. Then, 60 μl stock lysis buffer, containing for example 0.5% N-Lauroylsarcosine, 4×SSC, 10 mM Tris HCl, pH 7.4, 1 mM EDTA, 0.1% IGEPAL CA-630, and 1.791 M guanidine thiocyanate, supplemented with 1% 2-mercaptoethanol (Bio Rad, Hercules, Calif., USA), 0.5 mg/ml proteinase K (Pierce, Rockford, Ill., USA), 0.1 mg/ml salmon sperm DNA (5 Prime Eppendorf/Brinkmann, Westbury, N.Y., USA), 0.1 mg/ml E. coli tRNA (Sigma), a cocktail of 10 mM each of the specific reverse primers shown in Table 2, and standard RNA34 oligonucleotides, were applied to the filterplates, followed by incubation at 37° C. for 10 min. The filterplates were then placed over oligo(dT)-immobilized microplates (GenePlate, RNAture), and centrifuged at 2000×g for 5 min at 4° C. Following overnight storage at 4° C., the microplates were washed with 100 μl plain lysis buffer 3 times, followed by 150 μl of wash buffer (0.5 M NaCl, 10 mM Tris, pH 7.4, 1 mM EDTA) 3 times at 4° C. The cDNA was directly synthesized in each well by adding 30 μl of buffer containing 1×RT-buffer, 1.25 mM each of dNTP, 4 units rRNasin, and 80 units of MMLV reverse transcriptase (Promega) (without primers), and incubation at 37° C. for 2 hours. The specific primer-primed cDNA existed in solution, and oligo(dT)-primed cDNA stayed immobilized in the microplate. […]

IL-2 mRNA = experiment: PHA-induced IL-2 mRNA expression in heparinized whole blood ex vivo; settings: for ΔΔCt (mean ± standard deviation, n = 3), IL-2 mRNA: supplement 30 min, concentrations per footnote
Experimental: as §1, §2, §3

IL-4 mRNA = experiment: PHA-induced IL-4 mRNA expression in heparinized whole blood ex vivo; settings: for ΔΔCt (mean ± standard deviation, n = 3), IL-4 mRNA: supplement 30 min, then 100 μg/mL PHA 2 h, concentrations per footnote; for effect on PHA-induced IL-4 expression, in words: summary over 7 subjects of Table I
Experimental: as §1, §2, §3

[1] = tested on: CD32A mRNA (IgG Fc receptor); experiment: CD32A mRNA level in leukocytes after exposure of whole blood to dietary components (no stimulating agent); settings: one individual; 3 hours at 37° C.; PBS control
Experimental: In brief, home-made 96-well filterplates were placed over collection plates, and 150 μl 5 mM Tris, pH 7.4, was applied. Following centrifugation at 120×g for 1 min at 4° C., 50 μl of blood samples were applied to each well and immediately centrifuged at 120×g for 2 min at 4° C., followed by washing of each well with 300 μl PBS once with centrifugation at 2000×g for 5 min at 4° C. […] The filterplates were then placed over oligo(dT)-immobilized microplates (GenePlate, RNAture), and centrifuged at 2000×g for 5 min at 4° C. Following overnight storage at 4° C., the microplates were washed with 100 μl plain lysis buffer 3 times, followed by 150 μl of wash buffer (0.5 M NaCl, 10 mM Tris, pH 7.4, 1 mM EDTA) 3 times at 4° C. […] The specific primer-primed cDNA existed in solution, and oligo(dT)-primed cDNA stayed immobilized in the microplate. […] Each gene was amplified in separate wells. The Ct was determined by analytical software (SDS, ABI).

[2] = summary over 7 subjects of Table I
[3] = Subject 1, then 100 μg/mL PHA 2 h 37° C., negative = increased expression
[4] = Subject 2, then 100 μg/mL PHA 2 h
[5] = Subject 3, then 100 μg/mL PHA 2 h
[6] = Subject 4, then 100 μg/mL PHA 2 h
[7] = Subject 5, then 100 μg/mL PHA 2 h
[8] = Subject 6, then 100 μg/mL PHA 2 h
[9] = Subject 7, then 100 μg/mL PHA 2 h

## COc1cc(/C=C/C(=O)CC(=O)/C=C/c2ccc(O)c(OC)c2)ccc1O [Cur., curcumin]
TNF-α mRNA; Subject 1
  ΔΔCt (mean ± standard deviation, n = 3), TNFα mRNA: 3.52 ± 1.84
TNF-α mRNA; Subject 2
  ΔΔCt (mean ± standard deviation, n = 3), TNFα mRNA: 3.64 ± 2.26
TNF-α mRNA; Subject 3
  ΔΔCt (mean ± standard deviation, n = 3), TNFα mRNA: 0.83 ± 0.60
TNF-α mRNA; Subject 4
  ΔΔCt (mean ± standard deviation, n = 3), TNFα mRNA: 0.45 ± 0.15
TNF-α mRNA; Subject 5
  ΔΔCt (mean ± standard deviation, n = 3), TNFα mRNA: 0.13 ± 0.17
TNF-α mRNA; Subject 6
  ΔΔCt (mean ± standard deviation, n = 3), TNFα mRNA: 0.07 ± 0.01
TNF-α mRNA; Subject 7
  ΔΔCt (mean ± standard deviation, n = 3), TNFα mRNA: 0.12 ± 0.21
TNF-α mRNA; [2]
  effect on PHA-induced TNF-α expression, in words: significantly decreased IL-2, IL-4, and TNF-α expression in 2 cases
IL-2 mRNA; [3]
  ΔΔCt (mean ± standard deviation, n = 3), IL-2 mRNA: 1.47 ± 0.59
IL-2 mRNA; [4]
  ΔΔCt (mean ± standard deviation, n = 3), IL-2 mRNA: 2.51 ± 0.23
IL-2 mRNA; [5]
  ΔΔCt (mean ± standard deviation, n = 3), IL-2 mRNA: 0.31 ± 0.14
IL-2 mRNA; [6]
  ΔΔCt (mean ± standard deviation, n = 3), IL-2 mRNA: 0.33 ± 0.27
IL-2 mRNA; [7]
  ΔΔCt (mean ± standard deviation, n = 3), IL-2 mRNA: 0.03 ± 0.20
IL-2 mRNA; [8]
  ΔΔCt (mean ± standard deviation, n = 3), IL-2 mRNA: 0.01 ± 0.14
IL-2 mRNA; [9]
  ΔΔCt (mean ± standard deviation, n = 3), IL-2 mRNA: −0.01 ± 0.21
IL-2 mRNA; [2]
  effect on PHA-induced IL-2 expression, in words: significantly decreased IL-2, IL-4, and TNF-α expression in 2 cases
IL-4 mRNA; Subject 1
  ΔΔCt (mean ± standard deviation, n = 3), IL-4 mRNA: 1.27 ± 0.78
IL-4 mRNA; Subject 2
  ΔΔCt (mean ± standard deviation, n = 3), IL-4 mRNA: 3.09 ± 0.15
IL-4 mRNA; Subject 3
  ΔΔCt (mean ± standard deviation, n = 3), IL-4 mRNA: −0.01 ± 0.07
IL-4 mRNA; Subject 4
  ΔΔCt (mean ± standard deviation, n = 3), IL-4 mRNA: 0.10 ± 0.27
IL-4 mRNA; Subject 5
  ΔΔCt (mean ± standard deviation, n = 3), IL-4 mRNA: 0.00 ± 0.20
IL-4 mRNA; Subject 6
  ΔΔCt (mean ± standard deviation, n = 3), IL-4 mRNA: 0.10 ± 0.13
IL-4 mRNA; Subject 7
  ΔΔCt (mean ± standard deviation, n = 3), IL-4 mRNA: 0.52 ± 0.26
IL-4 mRNA
  effect on PHA-induced IL-4 expression, in words: significantly decreased IL-2, IL-4, and TNF-α expression in 2 cases

## vitamin E
[1]
  conclusion from CD32A mRNA levels (FIG. 2), in words: would be suitable for use in this individual in a diet optimized for anti-cancer activity

## O=C1O[C@H]([C@@H](O)CO)C(O)=C1O [VC, vitamin C]
TNF-α mRNA; Subject 1
  ΔΔCt (mean ± standard deviation, n = 3), TNFα mRNA: −1.82 ± 0.65
TNF-α mRNA; Subject 2
  ΔΔCt (mean ± standard deviation, n = 3), TNFα mRNA: 0.10 ± 1.14
TNF-α mRNA; Subject 3
  ΔΔCt (mean ± standard deviation, n = 3), TNFα mRNA: −0.04 ± 0.27
TNF-α mRNA; Subject 4
  ΔΔCt (mean ± standard deviation, n = 3), TNFα mRNA: 0.09 ± 0.16
TNF-α mRNA; Subject 5
  ΔΔCt (mean ± standard deviation, n = 3), TNFα mRNA: −1.21 ± 0.14
TNF-α mRNA; Subject 6
  ΔΔCt (mean ± standard deviation, n = 3), TNFα mRNA: −0.48 ± 0.04
TNF-α mRNA; Subject 7
  ΔΔCt (mean ± standard deviation, n = 3), TNFα mRNA: −0.40 ± 0.15
IL-2 mRNA; [3]
  ΔΔCt (mean ± standard deviation, n = 3), IL-2 mRNA: −0.18 ± 0.54
IL-2 mRNA; [4]
  ΔΔCt (mean ± standard deviation, n = 3), IL-2 mRNA: 0.00 ± 0.60
IL-2 mRNA; [5]
  ΔΔCt (mean ± standard deviation, n = 3), IL-2 mRNA: 1.04 ± 0.21
IL-2 mRNA; [6]
  ΔΔCt (mean ± standard deviation, n = 3), IL-2 mRNA: 1.47 ± 0.19
IL-2 mRNA; [7]
  ΔΔCt (mean ± standard deviation, n = 3), IL-2 mRNA: −0.80 ± 0.13
IL-2 mRNA; [8]
  ΔΔCt (mean ± standard deviation, n = 3), IL-2 mRNA: 1.02 ± 0.05
IL-2 mRNA; [9]
  ΔΔCt (mean ± standard deviation, n = 3), IL-2 mRNA: 0.07 ± 0.27
IL-4 mRNA; Subject 1
  ΔΔCt (mean ± standard deviation, n = 3), IL-4 mRNA: −2.20 ± 0.72
IL-4 mRNA; Subject 2
  ΔΔCt (mean ± standard deviation, n = 3), IL-4 mRNA: −0.86 ± 0.62
IL-4 mRNA; Subject 3
  ΔΔCt (mean ± standard deviation, n = 3), IL-4 mRNA: −0.77 ± 0.40
IL-4 mRNA; Subject 4
  ΔΔCt (mean ± standard deviation, n = 3), IL-4 mRNA: −0.43 ± 0.17
IL-4 mRNA; Subject 5
  ΔΔCt (mean ± standard deviation, n = 3), IL-4 mRNA: −1.22 ± 0.17
IL-4 mRNA; Subject 6
  ΔΔCt (mean ± standard deviation, n = 3), IL-4 mRNA: −0.77 ± 0.09
IL-4 mRNA; Subject 7
  ΔΔCt (mean ± standard deviation, n = 3), IL-4 mRNA: −1.30 ± 0.22
IL-4 mRNA
  effect on PHA-induced IL-4 expression, in words: enhanced IL-4 expression, with 1-3 exceptions

## CCCCC/C=C\C/C=C\C/C=C\CCCCC(=O)O [γ-linoleic acid, γ-linoleic acids]
[1]
  conclusion from CD32A mRNA levels (FIG. 2), in words: would be suitable for use in this individual in a diet optimized for anti-cancer activity
